Assay results taken from US20140010939A1, “Sweetness Enhancers, Sweetener Compositions, Methods of Making the Same and Consumables Containing the Same” (Nutrinova Nutrition Specialties & Food Ingredients GmbH, priority 2011, published 2014).

Key:
[1] = Taste and spit assay phase I - qualitative assessment; assay type: in vivo; settings: 20 μM in 0.5% ethanol, 10 ml samples, 5 individuals, ambient temperature
Experimental: The taste of a sample of compound of formula (Ia) with regard to sweetness and fructose enhancing features was assessed by using a panel of trained sensory evaluators experienced in the sweet taste estimation procedure. 5 individuals were asked to taste the quality of single samples of 10 ml volume. Panelists were asked to take a sample of the liquid to be assessed (20 μM test substance compound of formula (Ia) in 0.5% ethanol) into the mouth and after some time allowed for taste perception to spit the sample out completely. Subsequently, the panelists were asked to rinse their mouth well with water or black tea to reduce any potential carry over effects. The tasting of a sample could be repeated if required. In a first descriptive test 5 individuals were asked to taste the quality of single samples of 10 ml volume (maximum 3 subsequent samples). The samples were served at ambient temperature. The individuals of the taste panel were asked to answer the following questions with regard to the quality of taste: 1) does the sample taste sweet?, 2) is there another taste detectable (bitter, sour, salty, umami)?, 3) is there an off- or aftertaste?, 4) is there anything else remarkable about the perception of the sample?

[2] = Taste and spit assay phase II - assessment of fructose enhancing features; assay type: in vivo; settings: 20 μM with fructose (4%) in 0.5% ethanol versus fructose (4%) only, 5 individuals, 10 ml
Experimental: The taste of a sample of compound of formula (Ia) with regard to sweetness and fructose enhancing features was assessed by using a panel of trained sensory evaluators experienced in the sweet taste estimation procedure. 5 individuals were asked to taste the quality of single samples of 10 ml volume. Panelists were asked to take a sample of the liquid to be assessed (20 μM test substance compound of formula (Ia) in 0.5% ethanol) into the mouth and after some time allowed for taste perception to spit the sample out completely. Subsequently, the panelists were asked to rinse their mouth well with water or black tea to reduce any potential carry over effects. The tasting of a sample could be repeated if required. In the next step the panelists were asked to answer questions in a pairwise comparison test to determine the enhancement of sweet taste of the test substance with fructose relative to fructose only. Again, 5 individuals were given samples of 10 ml volume. This time two samples were prepared for direct comparison regarding sweetness. One sample contained fructose (4%) in solvent (0.5% ethanol) and the other sample additionally contained 20 μM of the test substance compound of formula (Ia). Designation of the samples with A and B was randomized and decoded after the taste procedure. […]

## CC(=O)N(O)CCCCCNC(=O)C(O)(CC(=O)O)CC(=O)NCCCN(O)C(C)=O (stereo not drawn) [compound of formula (Ia)]
[1]
  Characteristic taste of the sample (sweet, bitter, sour, salty, umami): No characteristic taste was identified
  Off- or aftertaste: no off-taste was detected
[2]
  Sweetness in pairwise comparison with fructose only: All 5 panelists identified the sample containing 4% fructose with the compound of formula (Ia) as sweeter than the sample containing 4% fructose only
